This data set can be described thus: recombinant barcode read abundance after kanamycin selection (control-corrected) (log10(CPM+1)); higher = more efficient recombination; sequences stand for … in AGTGCAGAGAAAATCGGCCAGTTTTCTCTGCCTGCAGTCCGCATGCCGT…AGATTTATGCAGCGGACTGCCTTTCTCCCAAAGTGATAAACCGGACAGTATCATGGACCGGTTTTCCCGGTAATCCGTATTTGCAAGGTTGGTTTCACT; site = the 11-nt target. Summed up:
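A promoter, a target, a barcode and the first 104 bridge RNA bases under J23119 made up each oligo. Oligos were Gibson-cloned into a vector bearing the other 73 bp and a T7-inducible recombinase, then co-electroporated into E. coli with a donor plasmid and plated in duplicate on chloramphenicol/ampicillin LB agar (control) or chloramphenicol/ampicillin/kanamycin with 0.1 mM IPTG. Recombination efficiency is the averaged, control-corrected counts per million of recombinant-junction barcodes. Reported values are log10(CPM+1).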
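Further: IS621 recombinase and bridge RNA in Escherichia coli cells.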

Take “TTCCGCTCTTGGGTTCTAACCTGTTGCCT (site CTCCGCTCTAG)”: the “recombinant barcode read abundance (log10)” value is 0.121.

On to “TTCCGCTCTTGGGTTCTAACCTGTTGCCT (site GTCCGCTCTAG)”, for which the “recombinant barcode read abundance (log10)” value was 0.139.

For the sequence “TTCCGCTCTTGGGTTCTAACCTGTTGCCT (site TTCCGCTCTAG)”, the “recombinant barcode read abundance (log10)” value was 1.26.

Consider “TTCCTAGCTTGGGTTCTAACCTGTTGCCA (site ATCCTAGCTCG)”, for which the “recombinant barcode read abundance (log10)” value is 0.493.

Take “TTCCTAGCTTGGGTTCTAACCTGTTGCCA (site TTCCTAGCTTG)”: the “recombinant barcode read abundance (log10)” value came out at 0.109.

For “TTCCTGACTTGGGTTCTAACCTGTTGCCT (site CTCCTGCCTAG)”, the “recombinant barcode read abundance (log10)” value turned out to be 0.0475.

As to “TTCCTGACTTGGGTTCTAACCTGTTGCCT (site TTCCTGACTAG)”, the “recombinant barcode read abundance (log10)” value was found to be 1.69.

Take “TTCGACGCTTGGGTTCTAACCTGTTGCCT (site TTAGACTCTAG)”: the “recombinant barcode read abundance (log10)” value is 0.152.

For the sequence “TTCGACGCTTGGGTTCTAACCTGTTGCCT (site TTCGACGCTAG)”, the “recombinant barcode read abundance (log10)” value came out at 1.03.

In the case of “TTCGACTCTTGGGTTCTAACCTGTTGCTA (site TACGACTCTAA)”, the “recombinant barcode read abundance (log10)” value was 0.137.

For the sequence “TTCGACTCTTGGGTTCTAACCTGTTGCTA (site TTCGACTCTTA)”, the “recombinant barcode read abundance (log10)” value is 1.07.

For “TTCGGACCTTGGGTTCTAACCTGTTGCGG (site GGGACCACTTA)”, the “recombinant barcode read abundance (log10)” value came to 0.677.

On to “TTCGGACCTTGGGTTCTAACCTGTTGCGG (site TTCGGACCTCC)”, for which the “recombinant barcode read abundance (log10)” value was determined as 2.62.

In the case of “TTCTACCCTTGGGTTCTAACCTGTTGCCT (site TACTACCCTAG)”, the “recombinant barcode read abundance (log10)” value was found to be 0.0731.

Turning to “TTCTACCCTTGGGTTCTAACCTGTTGCCT (site TCCTACCCTAG)”, the “recombinant barcode read abundance (log10)” value came out at 0.149.

As for “TTCTACCCTTGGGTTCTAACCTGTTGCCT (site TGCTACCCTAG)”, the “recombinant barcode read abundance (log10)” value stood at 0.0636.

Turning to “TTCTACCCTTGGGTTCTAACCTGTTGCCT (site TTCTACCCTAG)”, the “recombinant barcode read abundance (log10)” value was determined as 0.449.

“TTCTAGACTTGGGTTCTAACCTGTTGCCA (site GTCTATACTTG)”: the “recombinant barcode read abundance (log10)” value turned out to be 0.16.

Regarding “TTCTAGACTTGGGTTCTAACCTGTTGCCA (site TTCTAGACTTG)”, the “recombinant barcode read abundance (log10)” value turned out to be 0.353.

For “TTCTCGCCTTGGGTTCTAACCTGTTGCCT (site TTCACGCCTAG)”, the “recombinant barcode read abundance (log10)” value was 0.0182.

With “TTCTCGCCTTGGGTTCTAACCTGTTGCCT (site TTCCCGCCTAG)”, the “recombinant barcode read abundance (log10)” value came out at 0.536.

Consider “TTCTCGCCTTGGGTTCTAACCTGTTGCCT (site TTCGCGCCTAG)”, for which the “recombinant barcode read abundance (log10)” value is 0.00706.

For the sequence “TTCTCGCCTTGGGTTCTAACCTGTTGCCT (site TTCTCGCCTAG)”, the “recombinant barcode read abundance (log10)” value turned out to be 0.576.

As to “TTCTGTCCTTGGGTTCTAACCTGTTGCCT (site TTCTATCCTAG)”, the “recombinant barcode read abundance (log10)” value came out at 0.0361.

Turning to “TTCTGTCCTTGGGTTCTAACCTGTTGCCT (site TTCTCTCCTAG)”, the “recombinant barcode read abundance (log10)” value is 0.0821.

In the case of “TTCTGTCCTTGGGTTCTAACCTGTTGCCT (site TTCTGTCCTAG)”, the “recombinant barcode read abundance (log10)” value is 0.799.

On to “TTCTGTCCTTGGGTTCTAACCTGTTGCCT (site TTCTTTCCTAG)”, for which the “recombinant barcode read abundance (log10)” value is 0.0428.

In the case of “TTCTGTTCTTGGGTTCTAACCTGTTGCCT (site TTCTCTTCTAG)”, the “recombinant barcode read abundance (log10)” value came to 0.0281.

For the sequence “TTCTGTTCTTGGGTTCTAACCTGTTGCCT (site TTCTGTTCTAG)”, the “recombinant barcode read abundance (log10)” value amounted to 0.196.

As to “TTCTTAACTTGGGTTCTAACCTGTTGCGG (site ACTGATCCTAT)”, the “recombinant barcode read abundance (log10)” value is 0.0323.

On to “TTCTTAACTTGGGTTCTAACCTGTTGCGG (site TTCTTAACTCC)”, for which the “recombinant barcode read abundance (log10)” value came to 0.532.

In the case of “TTGAACCCTTGGGTTCTAACCTGTTGCGT (site ATGAACCCTAC)”, the “recombinant barcode read abundance (log10)” value was determined as 0.303.

Values taken from the supplement of paper PMC11208160.
